Assays:
[1] = target: Rns (Escherichia coli, UniProt P16114); test: % Inhibition at 82.5 μM, Rns; assay type: cell-based, Enterotoxigenic E. coli; conditions: 82.5 μM
[2] = target: VirF (Shigella flexneri, UniProt P0A2T1); test: In vivo dose-response, VirF-activated virB-lacZ fusion in E. coli; assay type: cell-based; parameters: expressed in transfected cells; host or cells: E. coli SME4382 (virB-lacZ, pHG165virF)
Text: For dose-response studies, a virB-lacZ reporter strain was constructed that allowed IPTG (isopropyl-β-D-thiogalactopyranoside) induced expression of VirF from plasmid pHG165. To construct this virB-lacZ reporter strain, kMAD102 was isolated from strain AB97, used to infect strain ECL116, and single copy lysogens were identified. Plvir-mediated generalized transductions were then used to add malP::lacI^q and recA::cat to this strain, as described previously. The virF gene was amplified (Forward oligo, Reverse oligo), digested with EcoRI and PstI and then ligated into the same sites of plasmid pHG165. The resulting plasmid, pHG165virF was transformed into SME4259 to make SME4382 (FIG. 20, Top). A control strain, SME3359, which carries a single copy hts-lacZ reporter fusion in the chromosome and a plasmid pHG165lacI that expresses LacI protein (FIG. 20, Bottom), was constructed. Briefly, the hts-lacZ reporter fusion consists of a synthetic promoter that is repressed by Lad.
In vivo dose-response assays were performed using a procedure described previously. […] Bacterial cultures were mixed with varying concentrations of SE-1 (2.2% DMSO, final), induced with 6.5 mM IPTG for 3 h at 37° C., lysed and β-galactosidase activity was measured. […] IC50 values were calculated and graphs were drawn using Prism (GraphPad, La Jolla, Calif.).

[3] = target: T1, GB1^b-RhaR (Escherichia coli, UniProt P09378); test: EMSA in vitro DNA binding by GB1^b-RhaR; assay type: biochemical, E. coli
T1 construct: GB1basic (N); made in house; host or cells: E. coli ArcticExpress(DE3), pET21-derived plasmid
T1 sequence (P09378 whole entry): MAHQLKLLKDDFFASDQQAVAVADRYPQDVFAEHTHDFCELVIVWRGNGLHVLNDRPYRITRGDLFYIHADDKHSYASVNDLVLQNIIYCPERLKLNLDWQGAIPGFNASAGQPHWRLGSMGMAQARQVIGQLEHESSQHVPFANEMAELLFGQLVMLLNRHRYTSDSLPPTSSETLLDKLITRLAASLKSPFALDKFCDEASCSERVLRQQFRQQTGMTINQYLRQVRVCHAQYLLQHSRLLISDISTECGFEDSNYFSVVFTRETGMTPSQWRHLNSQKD
Text: All proteins for this study were expressed in E. coli. Untagged CRP was purified by Ni^2+-affinity chromatography as described. Lad protein was purified by ammonium sulfate precipitation and phosphocellulose column chromatography as described. RhaS-GB1^201b and GB1^b-RhaR were purified by Ni^2+-affinity chromatography. Briefly, plasmids derived from pET21 and expressing RhaS-GB1^201b and GB1^b-RhaR were transformed into competent cells of strains Acella™ (MoBiTec, Gottingen, Germany) or ArcticExpress(DE3) (Agilent Technologies, Santa Clara Calif.), respectively. The cells were grown in 1 liter TY plus ampicillin and rhamnose. Gentamycin was also added for GB1^b-RhaR. The cells were grown to OD600 of 0.5, transferred to a 15° C. shaker, 0.1 mM IPTG was added, and then incubated overnight. Cells were harvested by centrifugation and then resuspended in 30 mL of cold binding buffer (20 mM Tris, 500 mM NaCl, 5 mM imidazole, pH 7.9) plus L-rhamnose. Cells were lysed by three cycles of freeze thaw [with addition of lysozyme (0.4 mg/mL), tris(2-carboxyethyl)phosphine (TCEP, 1 mM) and phenylmethylsulfonyl fluoride (PMSF, 1 mM), at −80° C.] followed by sonication, and then centrifuged to remove cell debris. The supernatant was applied using an AKTAexplorer FPLC (GE Healthcare) to a 5 mL HiTrap Chelating HP column (GE Healthcare) that had been charged with 50 mM NiSO4, and equilibrated with 15 mL H2O and then 15 mL binding buffer. After loading, the column was washed with 25 mL binding buffer, then 25 mL wash buffer (binding buffer, but with 60 mM imidazole) plus L-rhamnose. A 10 mL gradient of binding buffer with 60 mM to 250 mM imidazole from was run and then 15 mL of elution buffer (binding buffer, but with 250 mM imidazole). […]
IRD700- and DY682-labeled oligos were from Eurofins MWG Operon. […] EMSA gels were imaged using an Odyssey infrared imager (LI-COR, Lincoln, Nebr.), and quantified using the Odyssey software, version 3.0.30. […] Inhibition values were calculated and graphs were drawn as for in vivo dose-response experiments.

Sequence of VirF (P0A2T1 whole entry, the tested form may be a part): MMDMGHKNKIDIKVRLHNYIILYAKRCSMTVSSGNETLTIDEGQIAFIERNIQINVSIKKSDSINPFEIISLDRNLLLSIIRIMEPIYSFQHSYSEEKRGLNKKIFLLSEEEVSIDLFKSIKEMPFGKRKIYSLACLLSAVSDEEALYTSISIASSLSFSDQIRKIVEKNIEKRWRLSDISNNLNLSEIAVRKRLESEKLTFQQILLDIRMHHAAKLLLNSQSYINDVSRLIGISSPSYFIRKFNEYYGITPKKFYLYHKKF
Sequence of Rns (P16114 whole entry, the tested form may be a part): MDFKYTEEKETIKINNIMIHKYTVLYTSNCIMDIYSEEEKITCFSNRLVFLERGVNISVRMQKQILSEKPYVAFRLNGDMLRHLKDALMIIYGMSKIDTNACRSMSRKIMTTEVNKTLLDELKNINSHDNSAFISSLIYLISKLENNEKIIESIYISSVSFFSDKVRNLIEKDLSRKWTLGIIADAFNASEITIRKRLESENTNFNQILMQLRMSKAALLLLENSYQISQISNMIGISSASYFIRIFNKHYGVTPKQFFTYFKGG

With `CCCCN1C=C(c2ccc3ccccc3n2)C(C[N+](=O)[O-])c2ccccc21` (stereo not drawn) [Compound 1, 1-butyl-4-(nitromethyl)-3-quinolin-2-yl-4H-quinoline] the “% Inhibition at 82.5 μM Rns” value [1] was 90%, the IC50 ([2]; IC50, virB-lacZ reporter fusion expression, E. coli strain with plasmid-expressed VirF) was roughly 8 µM and the “inhibition of in vivo activation by VirF” value ([2]; compared with full-length RhaS) was “similar, if not greater, extent than full-length RhaS”. For the same compound, the IC50 [3] was roughly 140 µM, the “concentration for 50% inhibition of GB1^b-RhaR relative to RhaS-GB1^201b” value [3] was “two-fold higher” and the “inhibition of GB1^b-RhaR binding to DNA” value [3] was “fully inhibit”.
